Among the data in US9221796B2, “Selective NR2B antagonists” (BRISTOL-MYERS SQUIBB COMPANY, priority 2014, dated 2015) are Ki values, retold here.

In general, Ki refers to a dissociation constant, usually derived from enzyme kinetics or from competition with a known ligand.

Bounds are passed on as bounds.

In one test the target is NR2B-subtype NMDA receptors (Rattus norvegicus (Rat), UniProt P35439+Q00960). The experiment in a line: Radioligand binding assay (3H Ro 25-6981 competition, forebrain membranes). Particulars: 3H Ro 25-6981 (4 nM), listed as 44, E-1, read-out: NR2B Binding Ki. The method in brief: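 Rat forebrain membranes competed against [3H]Ro 25-6981 for 1 hr at room temperature, then filtered onto PEI-treated GF/B plates and counted by scintillation. CPM converted to % inhibition, concentration-response curves fitted, Ki derived from at least two experiments.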
Sequence of NR2B-subtype NMDA receptors (Q00960 27-1482, other chains not shown): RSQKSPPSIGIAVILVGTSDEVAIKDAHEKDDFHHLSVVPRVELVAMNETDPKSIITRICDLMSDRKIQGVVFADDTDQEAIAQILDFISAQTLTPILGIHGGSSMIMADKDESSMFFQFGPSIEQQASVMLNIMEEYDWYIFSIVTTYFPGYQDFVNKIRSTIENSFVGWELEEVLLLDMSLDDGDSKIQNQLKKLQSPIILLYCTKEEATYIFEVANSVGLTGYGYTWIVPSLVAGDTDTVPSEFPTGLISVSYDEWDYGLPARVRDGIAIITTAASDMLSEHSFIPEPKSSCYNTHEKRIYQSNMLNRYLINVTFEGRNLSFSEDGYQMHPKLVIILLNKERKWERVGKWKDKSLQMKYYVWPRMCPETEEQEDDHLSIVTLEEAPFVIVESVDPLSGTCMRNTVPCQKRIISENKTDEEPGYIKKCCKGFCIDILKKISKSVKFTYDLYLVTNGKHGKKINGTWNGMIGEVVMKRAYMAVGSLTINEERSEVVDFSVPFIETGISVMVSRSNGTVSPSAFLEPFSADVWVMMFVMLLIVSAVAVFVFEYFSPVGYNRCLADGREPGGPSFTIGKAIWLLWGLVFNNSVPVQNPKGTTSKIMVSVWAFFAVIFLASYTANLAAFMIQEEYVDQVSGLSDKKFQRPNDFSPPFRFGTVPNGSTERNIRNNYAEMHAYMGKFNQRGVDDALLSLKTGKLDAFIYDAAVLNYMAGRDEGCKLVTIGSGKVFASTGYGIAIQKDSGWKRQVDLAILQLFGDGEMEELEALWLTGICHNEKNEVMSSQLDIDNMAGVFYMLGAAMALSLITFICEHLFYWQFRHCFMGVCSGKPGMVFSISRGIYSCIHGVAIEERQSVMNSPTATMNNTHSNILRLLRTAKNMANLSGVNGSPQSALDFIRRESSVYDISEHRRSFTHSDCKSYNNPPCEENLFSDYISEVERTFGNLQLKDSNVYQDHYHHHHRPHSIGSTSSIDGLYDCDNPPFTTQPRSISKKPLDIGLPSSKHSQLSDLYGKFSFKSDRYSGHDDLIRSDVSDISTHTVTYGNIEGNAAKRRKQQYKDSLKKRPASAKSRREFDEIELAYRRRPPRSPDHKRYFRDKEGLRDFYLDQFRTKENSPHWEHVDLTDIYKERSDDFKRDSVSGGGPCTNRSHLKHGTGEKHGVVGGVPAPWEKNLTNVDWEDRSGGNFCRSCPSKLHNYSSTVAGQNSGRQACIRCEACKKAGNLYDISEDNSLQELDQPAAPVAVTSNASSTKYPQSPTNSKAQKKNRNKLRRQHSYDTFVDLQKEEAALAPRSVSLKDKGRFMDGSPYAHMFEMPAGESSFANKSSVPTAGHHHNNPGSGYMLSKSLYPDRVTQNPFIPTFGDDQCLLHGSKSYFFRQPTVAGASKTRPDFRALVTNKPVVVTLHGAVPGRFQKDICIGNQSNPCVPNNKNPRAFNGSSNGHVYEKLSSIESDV
For the compound `O=C1C(N2CCC(c3ccc(O)cc3)C(O)C2)CCN1Cc1ccc(F)cc1` (single isomer, unassigned) [Example 44, E-1, 1-(4-Fluorobenzyl)-3-(cis-3-hydroxy-4-(4-hydroxyphenyl)piperidin-1-yl)pyrrolidin-2-one], the Ki was found to be 650 nM.

Staying with this test, now noted: 3H Ro 25-6981 (4 nM), listed as 44, E-2, read-out: NR2B Binding Ki.
On to `O=C1C(N2CCC(c3ccc(O)cc3)C(O)C2)CCN1Cc1ccc(F)cc1` (single isomer, unassigned) [Example 44, E-2, 1-(4-Fluorobenzyl)-3-(cis-3-hydroxy-4-(4-hydroxyphenyl)piperidin-1-yl)pyrrolidin-2-one], for which the Ki is 5.7 nM.

The test is the same for the next values; noted with them: 3H Ro 25-6981 (4 nM), read-out: NR2B Binding Ki.
For `O=C1C(N2CC(c3ccc(O)cc3)C2)CCN1Cc1ccc(F)cc1` (stereo not drawn) [Example 11, 1-(4-Fluorobenzyl)-3-(3-(4-hydroxyphenyl)azetidin-1-yl)pyrrolidin-2-one], the Ki amounted to 510 nM. Still for that read-out and setting: the result for `C[C@@H](c1ccc(F)cc1)N1CC[C@@H](N2CC[C@H](c3ccc(O)cc3)[C@@H](F)C2)C1=O` [Example 50, P-2, (R)-3-((3R,4R)-3-fluoro-4-(4-hydroxyphenyl)piperidin-1-yl)-1-((S)-1-(4-fluorophenyl)ethyl)pyrrolidin-2-one] reads 890 nM; that for `O=C1C(N2CCC(c3ccc(O)cc3)CC2)CCN1Cc1ccc(F)c(F)c1` (racemic) [Example 5, 1-(3,4-Difluorobenzyl)-3-(4-(4-hydroxyphenyl)piperidin-1-yl)pyrrolidin-2-one], 4.4 nM. For `C[C@@H](c1ccc(F)cc1)N1CC[C@H](N2CC[C@@H](c3ccc(O)cc3)[C@H](F)C2)C1=O` [Example 50, P-3, (S)-3-((3S,4S)-3-Fluoro-4-(4-hydroxyphenyl)piperidin-1-yl)-1-((S)-1-(4-fluorophenyl)ethyl)pyrrolidin-2-one], the Ki was not below 5000 nM. With `Cc1ccccc1CN1CCC(N2CC[C@@H](c3ccc(O)cc3)[C@H](F)C2)C1=O` (stereo partly drawn) [Example 59, 3-((3S,4S)-3-Fluoro-4-(4-hydroxyphenyl)piperidin-1-yl)-1-(2-methylbenzyl)pyrrolidin-2-one], the Ki is 81 nM. Regarding `O=C1C(N2CCC(c3ccc(O)cc3)C(F)(F)C2)CCN1Cc1ccc(OC(F)F)cc1` (stereo not drawn) [Example 94, 3-(3,3-Difluoro-4-(4-hydroxyphenyl)piperidin-1-yl)-1-(4-(difluoromethoxy)benzyl)-pyrrolidin-2-one], the Ki was 390 nM. On to `O=C1[C@H](N2CCC(c3ccc(O)cc3)C(F)(F)C2)CCN1Cc1ccccc1` (stereo partly drawn) [Example 102, P-2, (3R)-1-Benzyl-3-(3,3-difluoro-4-(4-hydroxyphenyl)piperidin-1-yl)pyrrolidin-2-one], for which the Ki is 30 nM.

`O=C1C(N2CCC(c3ccc(O)cc3)CC2)CCN1Cc1ccc(Cl)cc1` (racemic) [Example 17, 1-(4-Chlorobenzyl)-3-(4-(4-hydroxyphenyl)piperidin-1-yl)pyrrolidin-2-one]: the Ki is 1.6 nM.

As for `O=C1[C@@H](N2CCC(c3ccc(O)cc3)C(F)(F)C2)CCN1Cc1ccc(C(F)(F)F)cc1` (single isomer, unassigned) [Example 99, P-1], the Ki was determined as 380 nM. For the compound `O=C1[C@@H](N2CC[C@H](c3ccc(O)cc3)[C@@H](F)C2)CCN1Cc1ccc(C(F)(F)F)cc1` [Example 87, (S)-3-((3R,4R)-3-Fluoro-4-(4-hydroxyphenyl)piperidin-1-yl)-1-(4-(trifluoromethyl)benzyl)-pyrrolidin-2-one], the Ki amounted to 540 nM. Still for that read-out and setting: the result for `O=C1[C@H](N2CCC(c3ccc(O)cc3)C(F)(F)C2)CCN1Cc1ccc(Cl)c(F)c1` (single isomer, unassigned) [Example 107, P-2] reads 7.7 nM. On to `O=C1[C@H](N2CCC(c3ccc(O)cc3)CC2)CCN1Cc1ccccc1` [Example 13b, (R)-1-Benzyl-3-(4-(4-hydroxyphenyl)piperidin-1-yl)pyrrolidin-2-one], for which the Ki turned out to be 1.6 nM. `Cc1ccccc1CN1CCC(N2CC[C@H](c3ccc(O)cc3)[C@@H](F)C2)C1=O` (stereo partly drawn) [Example 76, 3-((3R,4R)-3-Fluoro-4-(4-hydroxyphenyl)piperidin-1-yl)-1-(2-methylbenzyl)pyrrolidin-2-one]: the Ki came to 33 nM. Turning to `O=C1[C@H](N2CC[C@H](c3ccc(O)cc3)[C@@H](F)C2)CCN1Cc1ccc(Cl)c(F)c1` [Example 83, (R)-1-(4-Chloro-3-fluorobenzyl)-3-((3R,4R)-3-fluoro-4-(4-hydroxyphenyl)piperidin-1-yl)pyrrolidin-2-one], the inhibitory constant (Ki) turned out to be 5 nM. For `O=C1[C@H](N2CCC(c3ccc(O)cc3)C(F)(F)C2)CCN1Cc1ccc(Cl)cc1` (stereo partly drawn) [Example 95, P-2, (3R)-1-(4-Chlorobenzyl)-3-(3,3-difluoro-4-(4-hydroxyphenyl)piperidin-1-yl)pyrrolidin-2-one], the inhibitory constant (Ki) was found to be 12 nM. With `O=C1[C@@H](N2CC[C@@H](c3ccc(O)cc3)[C@H](F)C2)CCN1Cc1ccc(Cl)cc1` [Example 64, (S)-1-(4-Chlorobenzyl)-3-((3S,4S)-3-fluoro-4-(4-hydroxyphenyl)piperidin-1-yl)pyrrolidin-2-one], the Ki stood at 490 nM. `Cc1cccc(CN2CCC(N3CC[C@@H](c4ccc(O)cc4)[C@H](F)C3)C2=O)c1` (stereo partly drawn) [Example 60, 3-((3S,4S)-3-Fluoro-4-(4-hydroxyphenyl)piperidin-1-yl)-1-(3-methylbenzyl)pyrrolidin-2-one]: the Ki amounted to 110 nM. Regarding `O=C1C(N2CCCC(c3ccc(O)cc3)CC2)CCN1Cc1ccccc1` (stereo not drawn) [Example 37, 1-Benzyl-3-(4-(4-hydroxyphenyl)azepan-1-yl)pyrrolidin-2-one], the Ki was 21 nM. Consider `O=C1C(N2CCC(c3ccc(O)cc3)CC2)CCN1Cc1ccc(OC(F)F)cc1` (stereo not drawn) [Example 7, 1-(4-(Difluoromethoxy)benzyl)-3-(4-(4-hydroxyphenyl)piperidin-1-yl)pyrrolidin-2-one], for which the Ki was 37 nM. As for `O=C1C(N2CCCCC(c3ccc(O)cc3)C2)CCN1Cc1ccc(F)cc1` (stereo not drawn) [Example 31, 1-(4-Fluorobenzyl)-3-(3-(4-hydroxyphenyl)azepan-1-yl)pyrrolidin-2-one], the Ki was determined as 800 nM.

As to `C[C@@H](c1ccccc1)N1CC[C@H](N2CCC(c3ccc(O)cc3)CC2)C1=O` [Example 33a, (S)-3-(4-(4-Hydroxyphenyl)piperidin-1-yl)-1-((S)-1-phenylethyl)pyrrolidin-2-one], the Ki was not below 5000 nM. As to `Cc1ccc(CN2CC[C@@H](N3CC[C@@H](c4ccc(O)c(F)c4)[C@H](F)C3)C2=O)cc1` [Example 115, (R)-3-((3S,4S)-3-fluoro-4-(3-fluoro-4-hydroxyphenyl)piperidin-1-yl)-1-(4-methylbenzyl)pyrrolidin-2-one], the Ki stood at 2.7 nM.

Turning to `C[C@@H](c1ccccc1)N1CC[C@@H](N2CCC(c3ccc(O)cc3)CC2)C1=O` [Example 33b, (R)-3-(4-(4-Hydroxyphenyl)piperidin-1-yl)-1-((S)-1-phenylethyl)pyrrolidin-2-one], the Ki came to 44 nM.

As for `O=C1C(N2CCC(c3ccc(O)cc3)C(F)(F)C2)CCN1Cc1ccc(OC(F)F)cc1` (stereo not drawn) [Example 105, 3-(3,3-Difluoro-4-(4-hydroxyphenyl)piperidin-1-yl)-1-(4-(difluoromethoxy)benzyl)-pyrrolidin-2-one], the Ki came out at 180 nM.

As for `O=C1C(N2CCCC(c3ccc(O)cc3)C2)CCN1Cc1ccc(F)cc1` (stereo not drawn) [Example 4, 1-(4-Fluorobenzyl)-3-(3-(4-hydroxyphenyl)piperidin-1-yl)pyrrolidin-2-one], the Ki was not below 5000 nM. Consider `O=C1C(N2CCC(c3ccc(O)cc3)C(F)(F)C2)CCN1Cc1ccc(C(F)(F)F)cc1` (stereo not drawn) [Example 110, 3-(3,3-Difluoro-4-(4-hydroxyphenyl)piperidin-1-yl)-1-(4-(trifluoromethyl)benzyl)-pyrrolidin-2-one], for which the Ki is 36 nM.

With `O=C1C(N2CCC(c3ccc(O)cc3)C(F)(F)C2)CCN1Cc1ccc(Cl)c(Cl)c1` (stereo not drawn) [Example 98, 1-(3,4-Dichlorobenzyl)-3-(3,3-difluoro-4-(4-hydroxyphenyl)piperidin-1-yl)pyrrolidin-2-one], the Ki worked out at 230 nM.

For `O=C1[C@@H](N2CCC(c3ccc(O)cc3)CC2)CCN1Cc1ccccc1` [Example 13a, (S)-1-Benzyl-3-(4-(4-hydroxyphenyl)piperidin-1-yl)pyrrolidin-2-one], the Ki was 41 nM. In the case of `O=C1C(N2CC[C@@H](c3ccc(O)cc3)[C@H](F)C2)CCN1Cc1ccc(OC(F)F)cc1` (stereo partly drawn) [Example 61, 1-(4-(Difluoromethoxy)benzyl)-3-((3S,4S)-3-fluoro-4-(4-hydroxyphenyl)piperidin-1-yl)pyrrolidin-2-one], the Ki is 46 nM. Take `O=C1C(N2CC[C@H](c3ccc(O)cc3)[C@@H](F)C2)CCN1Cc1ccc(F)c(F)c1` (stereo partly drawn) [Example 85, 1-(3,4-Difluorobenzyl)-3-((3R,4R)-3-fluoro-4-(4-hydroxyphenyl)-piperidin-1-yl)pyrrolidin-2-one]: the Ki was 23 nM. On to `O=C1[C@@H](N2CC[C@@H](c3ccc(O)c(F)c3)[C@H](F)C2)CCN1Cc1ccc(C(F)F)cc1` [Example 117, P-1, (S)-1-(4-(difluoromethyl)benzyl)-3-((3S,4S)-3-fluoro-4-(3-fluoro-4-hydroxyphenyl)piperidin-1-yl)pyrrolidin-2-one], for which the Ki was 79 nM.

On to `Cc1ccc(CN2CCCC(N3CCC(c4ccc(O)cc4)CC3)C2=O)cc1` (stereo not drawn) [Example 38, 4-(4-Hydroxyphenyl)-1′-(4-methylbenzyl)-[1,3′-bipiperidin]-2′-one], for which the Ki came out at 150 nM. Take `C[C@@H](c1ccccc1)N1CCC(N2CC[C@H](c3ccc(O)cc3)[C@@H](F)C2)C1=O` (stereo partly drawn) [Example 84, 3-((3R,4R)-3-Fluoro-4-(4-hydroxyphenyl)piperidin-1-yl)-1-((S)-1-phenylethyl)pyrrolidin-2-one]: the Ki is 950 nM. Take `O=C1C(N2CCC(c3ccc(O)cc3)C(O)C2)CCN1Cc1ccc(F)cc1` (single isomer, unassigned) [Example 9c, 1-(4-Fluorobenzyl)-3-(3-hydroxy-4-(4-hydroxyphenyl)-piperidin-1-yl)pyrrolidin-2-one]: the Ki was determined as 5000 nM.
